# Measurements reported in US11690850B2, “Inhibitors of receptor interacting protein kinase I for the treatment of disease” (Board of Regents, The University of Texas System, priority 2019, dated 2023).
# Several values for one entry are separate records, joined by “and”; a condition that tells them apart may be missing. Equal entries are not always repeated.
# Columns and labels:
# [1] = tested on: human monocytic cell line U937; experiment: Human U937 Cellular Necroptosis Assay; assay type: cell-based; details: U-937; U937 cells stimulated with 25 ng/mL human TNFalpha and 25 μM z-VAD-FMK, 22 hr, viability by Cell Titer-Glo 2.0; average value across multiple runs; read-out: hU937 IC50
# Procedure: Human U937 Cellular Necroptosis Assay
# The human monocytic cell line U937 (CRL-1593.2) was purchased from ATCC. The cells were routinely maintained in RPMI-1640 Medium (Gibco, Catalog #11875-093) supplemented with 10% heat inactivated fetal bovine serum (Gibco, Catalog #16140-071), 100 units/mL penicillin and 100 μg/mL streptomycin (Gibco, Catalog #15140-122), in a humidified incubator (37° C., 5% CO2). For the assay, cells were resuspended in RPMI-1640 phenol red free Media (Gibco, Catalog #11835-030) supplemented with 10% fetal bovine serum (Sigma, Catalog #F2442), 100 units/mL penicillin and 100 ug/mL streptomycin. Cells were stimulated with 25 ng/mL human TNFalpha (Cell Sciences, Catalog #CSI15659B) and 25 μM z-VAD-FMK (R&D Systems, Catalog #FMK001) followed by seeding 5000 cells per well in a volume of 40 μL to a white, CulturPlate-384 (Perkin Elmer, Catalog #6007680). Stock solutions of the test compounds were prepared in 100% DMSO (Sigma, Catalog #D2650) and serially diluted 1:3 using 100% DMSO. Compounds were additionally diluted 1:40 in assay medium, and 10 μL/well was transferred to the plate. Following the compound addition the plate was incubated at 37° C. and 5% CO2 for 22 hr. After 22 hr, viability was assessed with the addition of 20 μL of Cell Titer-Glo 2.0 (Promega, Catalog #G9243). The tissue culture plate was shaken on an orbital shaker at 300 RPM for 15 minutes at room temperature in the dark. Luminescence was measured using a PerkinElmer Envision™ plate reader. IC50 values were calculated using a four-parameter logistic curve fit using Genedata Screener software. Results are shown below in Table 5, where the average value across multiple runs is given.
# RIPK1 = RIPK1 (Homo sapiens (Human), UniProt Q13546); experiment: ADP-Glo Kinase Assay; assay type: biochemical; details: 5 nM RIPK1 protein, 50 μM ATP, 6 hr reaction, average value across multiple runs
# Procedure: In order to measure RIPK1 activity the ADP-Glo kinase assay (Promega, Catalog #V7002) was used to measure the conversion of ATP to ADP. This enzymatic assay was performed in a 384-well white, Optiplate (Perkin Elmer, Catalog #6007299) with assay buffer consisting of 50 mM HEPES pH 7.5 (Gibco, Catalog #15630-080), 50 mM NaCl (Teknova, Catalog #S0252), 30 mM MgCl2 (Ambion, Catalog #AM9530G), 1 mM DTT (Santa Cruz Biotechnology, Catalog #sc-29089), 0.05% BSA (Sigma, Catalog #A3059-50G) and 0.02% CHAPS (Sigma, Catalog #C5070-5G). Stock solutions of the test compounds were prepared in 100% DMSO (Sigma, Catalog #D2650) and serially diluted 1:3 using 100% DMSO. Compounds were additionally diluted 1:40 in assay buffer, and 2 μL/well were transferred to the assay plate. 4 μL/well (final concentration of 5 nM) of RIPK1 protein (SignalChem, Catalog #R07-11G-05) diluted in assay buffer and added to the assay plate followed by a 10 minute preincutation at room temperature. 4 μL/well of ATP (Promega, Catalog #V7002) (final concentration of 50 μM) diluted in assay buffer were then added to the assay plate followed by a 6 hr reaction time. Final concentrations of RIPK1 and ATP refer to a 10 μL volume. Luminescence was measured using a BioTek Synergy™ NEO plate reader. IC50 values were calculated using a four-parameter logistic curve fit using Genedata Screener software. Results are shown below in Table 4, where the average value across multiple runs is given.
# Sequence of RIPK1 (Q13546 1-327): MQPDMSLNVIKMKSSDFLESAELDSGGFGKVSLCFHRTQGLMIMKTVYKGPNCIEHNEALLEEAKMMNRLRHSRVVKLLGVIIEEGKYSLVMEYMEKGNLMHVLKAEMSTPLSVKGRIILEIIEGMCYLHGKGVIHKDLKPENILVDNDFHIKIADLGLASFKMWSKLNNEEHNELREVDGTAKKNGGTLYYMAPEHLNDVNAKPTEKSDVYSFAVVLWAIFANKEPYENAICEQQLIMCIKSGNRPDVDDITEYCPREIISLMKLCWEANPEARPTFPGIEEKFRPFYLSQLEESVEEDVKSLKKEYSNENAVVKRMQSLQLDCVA
Compound,IC50 [1],IC50 (RIPK1)
"Cc1cc(=O)c(C(=O)N[C@H]2COc3cccnc3NC2=O)nn1-c1ccccc1 [Example 63, (S)-6-methyl-4-oxo-N-(4-oxo-2,3,4,5-tetrahydropyrido[3,2-b][1,4]oxazepin-3-yl)-1-phenyl-1,4-dihydropyridazine-3-carboxamide]",0.479 µM,
"Cc1cc(=O)c(C(=O)NC2CCc3ccccc3-n3ccnc32)nn1-c1ccccc1 (stereo not drawn) [Example 73, N-(5,6-dihydro-4H-benzo[f]imidazo[1,2-a]azepin-4-yl)-6-methyl-4-oxo-1-phenyl-1,4-dihydropyridazine-3-carboxamide]",0.296 µM,
"Cc1c(Cl)c(=O)c(C(=O)N[C@H]2COc3cccnc3N(C)C2=O)nn1-c1ccccc1 [Example 74, (S)-5-chloro-6-methyl-N-(5-methyl-4-oxo-2,3,4,5-tetrahydropyrido[3,2-b]-[1,4]oxazepin-3-yl)-4-oxo-1-phenyl-1,4-dihydropyridazine-3-carboxamide]",0.0582 µM,
"Cc1ccc(-n2nc(C(=O)N[C@H]3COc4cccnc4N(C)C3=O)c(=O)cc2C)cc1F [Example 75, (S)-1-(3-fluoro-4-methylphenyl)-6-methyl-N-(5-methyl-4-oxo-2,3,4,5-tetrahydro-pyrido[3,2-b][1,4]oxazepin-3-yl)-4-oxo-1,4-dihydropyridazine-3-carboxamide]",0.0284 µM,
"Cc1cc(=O)c(C(=O)Nc2cc(F)cc(F)c2)nn1-c1ccccc1 [Example 92, N-(3,5-difluorophenyl)-6-methyl-4-oxo-1-phenyl-1,4-dihydropyridazine-3-carboxamide]",,0.414 µM
"Cc1cc(=O)c(C(=O)Nc2cccc(F)c2)nn1-c1ccccc1 [Example 93, N-(3-fluorophenyl)-6-methyl-4-oxo-1-phenyl-1,4-dihydropyridazine-3-carboxamide]",,0.282 µM
"Cc1ccnc(NC(=O)c2nn(-c3ccccc3F)c(C)cc2=O)c1 [Example 94, 1-(2-fluorophenyl)-6-methyl-N-(4-methylpyridin-2-yl)-4-oxo-1,4-dihydropyridazine-3-carboxamide]",,6.35 µM
"Cc1cccc(NC(=O)c2nn(-c3ccccc3F)c(C)cc2=O)n1 [Example 95, 1-(2-fluorophenyl)-6-methyl-N-(6-methylpyridin-2-yl)-4-oxo-1,4-dihydropyridazine-3-carboxamide]",,3.94 µM
"Cc1cc(=O)c(C(=O)NC(C)C2CC2)nn1-c1ccccc1 (stereo not drawn) [Example 96, N-(1-cyclopropylethyl)-6-methyl-4-oxo-1-phenyl-1,4-dihydropyridazine-3-carboxamide]",,6.49 µM
"Cc1ccc(NC(=O)c2nn(-c3ccccc3)c(C)cc2=O)cc1 [Example 97, 6-methyl-4-oxo-1-phenyl-N-(p-tolyl)-1,4-dihydropyridazine-3-carboxamide]",,11.6 µM
"Cc1cc(=O)c(C(=O)NC(c2ccccc2)C2CC2)nn1-c1ccccc1 (stereo not drawn) [Example 98, N-(cyclopropyl(phenyl)methyl)-6-methyl-4-oxo-1-phenyl-1,4-dihydropyridazine-3-carboxamide]",,3.57 µM
"Cc1cccc(NC(=O)c2nn(-c3ccccc3)c(C)cc2=O)n1 [Example 99, 6-methyl-N-(6-methylpyridin-2-yl)-4-oxo-1-phenyl-1,4-dihydropyridazine-3-carboxamide]",,3.49 µM
"Cc1cc(=O)c(C(=O)Nc2ccc(Cl)cn2)nn1-c1ccccc1F [Example 100, N-(5-chloropyridin-2-yl)-1-(2-fluorophenyl)-6-methyl-4-oxo-1,4-dihydropyridazine-3-carboxamide]",,43.8 µM
"CCn1c(NC(=O)c2nn(-c3ccccc3)c(C)cc2=O)nc2ccccc21 [Example 101, N-(1-ethyl-1H-benzo[d]imidazol-2-yl)-6-methyl-4-oxo-1-phenyl-1,4-dihydropyridazine-3-carboxamide]",,4.64 µM
"Cc1cc(=O)c(C(=O)Nc2ccccn2)nn1-c1ccccc1Cl [Example 102, 1-(2-chlorophenyl)-6-methyl-4-oxo-N-(pyridin-2-yl)-1,4-dihydropyridazine-3-carboxamide]",,2.37 µM
"Cc1cc(=O)c(C(=O)Nc2ccccn2)nn1-c1ccc(Cl)cc1 [Example 103, 1-(4-chlorophenyl)-6-methyl-4-oxo-N-(pyridin-2-yl)-1,4-dihydropyridazine-3-carboxamide]",,5 µM
"Cc1cc(=O)c(C(=O)NCC2CCC2)nn1-c1ccccc1 [Example 104, N-(cyclobutylmethyl)-6-methyl-4-oxo-1-phenyl-1,4-dihydropyridazine-3-carboxamide]",,8.25 µM
"Cc1noc(C(C)NC(=O)c2nn(-c3ccccc3)c(C)cc2=O)n1 (stereo not drawn) [Example 105, 6-methyl-N-(1-(3-methyl-1,2,4-oxadiazol-5-yl)ethyl)-4-oxo-1-phenyl-1,4-dihydropyridazine-3-carboxamide]",,36.9 µM
"Cc1cc(=O)c(C(=O)Nc2ccccn2)nn1-c1ccccc1 [Example 106, 6-methyl-4-oxo-1-phenyl-N-(pyridin-2-yl)-1,4-dihydropyridazine-3-carboxamide]",,1.78 µM
"Cc1cccc(NC(=O)c2nn(-c3ccccc3F)c(C)cc2=O)c1 [Example 107, 1-(2-fluorophenyl)-6-methyl-4-oxo-N-(m-tolyl)-1,4-dihydropyridazine-3-carboxamide]",,20.2 µM
"Cc1cc(=O)c(C(=O)Nc2ccccc2F)nn1-c1ccccc1 [Example 108, N-(2-fluorophenyl)-6-methyl-4-oxo-1-phenyl-1,4-dihydropyridazine-3-carboxamide]",,28.7 µM
"Cc1cc(=O)c(C(=O)Nc2ccc(F)cc2)nn1-c1ccccc1 [Example 109, N-(4-fluorophenyl)-6-methyl-4-oxo-1-phenyl-1,4-dihydropyridazine-3-carboxamide]",,28.1 µM
"C#CCNC(=O)c1nn(-c2ccccc2)c(C)cc1=O [Example 110, 6-methyl-4-oxo-1-phenyl-N-(prop-2-yn-1-yl)-1,4-dihydropyridazine-3-carboxamide]",,1.59 µM
"Cc1cc(NC(=O)c2nn(-c3ccccc3)c(C)cc2=O)sn1 [Example 111, 6-methyl-N-(3-methylisothiazol-5-yl)-4-oxo-1-phenyl-1,4-dihydropyridazine-3-carboxamide]",,39.1 µM
"Cc1noc(C2CC2)c1NC(=O)c1nn(-c2ccccc2)c(C)cc1=O [Example 112, N-(5-cyclopropyl-3-methylisoxazol-4-yl)-6-methyl-4-oxo-1-phenyl-1,4-dihydropyridazine-3-carboxamide]",,0.791 µM
"Cc1cc(=O)c(C(=O)N2CCC(Oc3ccccn3)C2)nn1-c1ccccc1 (stereo not drawn) [Example 113, 6-methyl-1-phenyl-3-(3-(pyridin-2-yloxy)pyrrolidine-1-carbonyl)pyridazin-4(1H)-one]",,29.5 µM
"Cc1ccnc(NC(=O)c2nn(-c3ccccc3)c(C)cc2=O)c1 [Example 114, 6-methyl-N-(4-methylpyridin-2-yl)-4-oxo-1-phenyl-1,4-dihydropyridazine-3-carboxamide]",,5.6 µM and 7.5 µM
"Cc1cc(=O)c(C(=O)Nc2ccncc2)nn1-c1ccccc1 [Example 115, 6-methyl-4-oxo-1-phenyl-N-(pyridin-4-yl)-1,4-dihydropyridazine-3-carboxamide]",,2.92 µM and 3.47 µM
"Cc1cc(=O)c(C(=O)Nc2cnns2)nn1-c1ccccc1 [Example 116, 6-methyl-4-oxo-1-phenyl-N-(1,2,3-thiadiazol-5-yl)-1,4-dihydropyridazine-3-carboxamide]",,8.52 µM and 17.4 µM
"Cc1cc(=O)c(C(=O)Nc2c(C(C)C)cccc2C(C)C)nn1-c1ccccc1 [Example 117, N-(2,6-diisopropylphenyl)-6-methyl-4-oxo-1-phenyl-1,4-dihydropyridazine-3-carboxamide]",,1.19 µM
